Read-outs that look alike come from different tables or passages of the source.
Experiments:
ROCK1 = ROCK1 (Homo sapiens, UniProt Q13464); experiment: scanMax kinome panel, ROCK1; assay type: binding; set-up: purchased Eurofins-DiscoverX; conditions: 200 nM CP612
Method: (§1) CP612 was screened for kinome specificity at 200 nM against 468 kinases using the scanMax assay panel from Eurofins-DiscoverX. CP612 inhibited 10 other WT kinases besides PKCε, all to < 10% of control: CLK1 (CDC Like Kinase 1), CLK4, PKN1 (Protein kinase N1), PKN2, PKCδ, PKCη, PKCθ, PRKG2 (Protein Kinase CGMP-Dependent 2), ROCK1, and ROCK2.

PKCε = molecular target: T1, PKCε (Homo sapiens, UniProt Q02156); experiment: Lance-FRET kinase assay, PKCε; assay type: biochemical; set-up: His; AVI; made in house; host or cells: Sf9 cells
T1 sequence (Q02156 1-737): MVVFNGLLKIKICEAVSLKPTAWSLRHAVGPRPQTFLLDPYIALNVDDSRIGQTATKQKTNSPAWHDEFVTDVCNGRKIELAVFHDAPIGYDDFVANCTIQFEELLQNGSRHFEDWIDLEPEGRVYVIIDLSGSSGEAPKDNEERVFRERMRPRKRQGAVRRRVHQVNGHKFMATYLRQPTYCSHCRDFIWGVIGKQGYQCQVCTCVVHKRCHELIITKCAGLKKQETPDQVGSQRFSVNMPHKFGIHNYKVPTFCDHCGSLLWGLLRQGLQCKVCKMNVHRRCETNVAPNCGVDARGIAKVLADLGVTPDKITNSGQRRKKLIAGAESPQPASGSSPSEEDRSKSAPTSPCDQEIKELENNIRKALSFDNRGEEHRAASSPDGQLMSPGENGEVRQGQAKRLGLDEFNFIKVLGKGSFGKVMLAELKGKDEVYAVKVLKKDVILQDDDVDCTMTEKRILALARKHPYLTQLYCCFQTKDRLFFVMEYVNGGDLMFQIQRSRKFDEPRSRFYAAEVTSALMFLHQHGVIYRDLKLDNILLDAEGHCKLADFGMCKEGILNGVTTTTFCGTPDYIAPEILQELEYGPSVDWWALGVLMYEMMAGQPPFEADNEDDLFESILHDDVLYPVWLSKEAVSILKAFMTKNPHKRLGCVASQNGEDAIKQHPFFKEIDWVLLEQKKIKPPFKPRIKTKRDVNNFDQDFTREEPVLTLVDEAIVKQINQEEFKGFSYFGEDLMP
Method: (§2) Kinase assays. CP612 was assayed against His-AVI–tagged human PKCε (1 nM) produced in Sf9 cells, and ROCK1 (Carna Biosciences; 5 nM) using the Lance-FRET kinase assay system (PerkinElmer Revvity). Other human recombinant PKCs (SignalChem Biotech) were assayed in triplicate at the following concentrations: PKCβII 1.6 nM, PKCγ 500 pM, PKCδ 5 nM, PKCθ 500 pM, and PKCζ 500 pM. PKCs were incubated in a 15 μL reaction volume with kinase buffer (20 mM Tris-HCL [pH 7.4], 10 mM MgCl2, 0.25 mM EGTA, 0.1 mg/mL BSA, and 0.15% Triton X-100), 50 nM ULight-labeled CREBtide […] (PerkinElmer, TRF0107, Revvity), and test compound. Reactions were initiated by adding 2.5 μM ATP at 27°C and were terminated after 60 minutes with 10 μL of 2.5× Stop Solution/Detection Mix containing 20 mM EDTA and 4 nM LANCE Ultra Europium anti–phospho-PKC (Ala25Ser) peptide antibody (PerkinElmer, TRF0200, Revvity). After incubation at 27°C for another 60 minutes, phosphorylation was detected using a FlexStation 3 Microplate Reader (Molecular Devices) in LANCE TR-FRET mode (excitation = 340 nm, emission = 665 nm) and expressed as relative fluorescence units (RFU). The percentage of inhibition was calculated as: (signal without test compound − signal with test compound)/(signal without test compound − signal without ATP) × 100. The Z’ factor for this assay ranged between 0.72 and 0.86.
Kinase assays used 11-point concentration-response curves and results were analyzed by nonlinear regression using Prism 9 (GraphPad Software) to determine IC50 values. Other analyses were performed on Prism 9 and Statistica (Tibco Software). Scores for pain threshold, conditioned place preference, and self-administration were analyzed by ANOVA using the following factors. […] We used a Tukey’s test for post hoc comparisons across groups and Dunnett’s test for post hoc comparisons with own pain thresholds at baseline values in the pain studies. Somatic withdrawal scores were analyzed with a Kruskal-Wallis test due to the nonparametric nature of those data, followed by nonparametric post hoc comparisons according to Siegel and Castellan ([40]). A P value less than 0.05 was considered significant.

PKN1 (Protein kinase N1) = molecular target: T2, PKN1 (Protein kinase N1) (Homo sapiens, UniProt Q16512); experiment: scanMax kinome panel, PKN1; assay type: binding; conditions: 200 nM CP612; read-out: scanMax % of control, PKN1
T2 construct: purchased Eurofins-DiscoverX
T2 sequence (Q16512 whole entry): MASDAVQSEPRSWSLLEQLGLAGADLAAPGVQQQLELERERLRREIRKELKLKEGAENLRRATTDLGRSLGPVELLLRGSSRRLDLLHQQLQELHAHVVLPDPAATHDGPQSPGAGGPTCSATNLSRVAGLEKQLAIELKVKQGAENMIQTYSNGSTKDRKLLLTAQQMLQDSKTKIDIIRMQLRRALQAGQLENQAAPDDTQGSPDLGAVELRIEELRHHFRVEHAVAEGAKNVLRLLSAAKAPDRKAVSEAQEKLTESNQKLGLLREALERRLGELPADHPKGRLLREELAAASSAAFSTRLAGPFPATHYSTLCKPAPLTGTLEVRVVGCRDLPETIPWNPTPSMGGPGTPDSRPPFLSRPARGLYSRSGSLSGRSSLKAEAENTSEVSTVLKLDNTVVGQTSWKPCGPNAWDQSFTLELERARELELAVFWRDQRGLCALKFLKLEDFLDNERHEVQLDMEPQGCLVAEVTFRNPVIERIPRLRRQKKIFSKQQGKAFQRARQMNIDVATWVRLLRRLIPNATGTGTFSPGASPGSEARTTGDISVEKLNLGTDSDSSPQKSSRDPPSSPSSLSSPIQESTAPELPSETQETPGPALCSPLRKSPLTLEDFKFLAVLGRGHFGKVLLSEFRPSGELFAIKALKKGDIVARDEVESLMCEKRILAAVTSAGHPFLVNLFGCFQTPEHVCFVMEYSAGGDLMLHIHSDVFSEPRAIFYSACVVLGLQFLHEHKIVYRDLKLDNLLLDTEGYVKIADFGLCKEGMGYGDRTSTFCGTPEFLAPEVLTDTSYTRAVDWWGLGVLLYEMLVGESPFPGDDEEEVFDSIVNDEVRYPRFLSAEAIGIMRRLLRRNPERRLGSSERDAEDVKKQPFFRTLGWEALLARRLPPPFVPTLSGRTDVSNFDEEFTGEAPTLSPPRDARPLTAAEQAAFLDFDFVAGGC
Method: as §1

PKN2 = molecular target: T3, PKN2 (Homo sapiens, UniProt Q16513); experiment: scanMax kinome panel, PKN2; assay type: binding; conditions: 200 nM CP612
T3 construct: purchased Eurofins-DiscoverX
T3 sequence (Q16513 whole entry): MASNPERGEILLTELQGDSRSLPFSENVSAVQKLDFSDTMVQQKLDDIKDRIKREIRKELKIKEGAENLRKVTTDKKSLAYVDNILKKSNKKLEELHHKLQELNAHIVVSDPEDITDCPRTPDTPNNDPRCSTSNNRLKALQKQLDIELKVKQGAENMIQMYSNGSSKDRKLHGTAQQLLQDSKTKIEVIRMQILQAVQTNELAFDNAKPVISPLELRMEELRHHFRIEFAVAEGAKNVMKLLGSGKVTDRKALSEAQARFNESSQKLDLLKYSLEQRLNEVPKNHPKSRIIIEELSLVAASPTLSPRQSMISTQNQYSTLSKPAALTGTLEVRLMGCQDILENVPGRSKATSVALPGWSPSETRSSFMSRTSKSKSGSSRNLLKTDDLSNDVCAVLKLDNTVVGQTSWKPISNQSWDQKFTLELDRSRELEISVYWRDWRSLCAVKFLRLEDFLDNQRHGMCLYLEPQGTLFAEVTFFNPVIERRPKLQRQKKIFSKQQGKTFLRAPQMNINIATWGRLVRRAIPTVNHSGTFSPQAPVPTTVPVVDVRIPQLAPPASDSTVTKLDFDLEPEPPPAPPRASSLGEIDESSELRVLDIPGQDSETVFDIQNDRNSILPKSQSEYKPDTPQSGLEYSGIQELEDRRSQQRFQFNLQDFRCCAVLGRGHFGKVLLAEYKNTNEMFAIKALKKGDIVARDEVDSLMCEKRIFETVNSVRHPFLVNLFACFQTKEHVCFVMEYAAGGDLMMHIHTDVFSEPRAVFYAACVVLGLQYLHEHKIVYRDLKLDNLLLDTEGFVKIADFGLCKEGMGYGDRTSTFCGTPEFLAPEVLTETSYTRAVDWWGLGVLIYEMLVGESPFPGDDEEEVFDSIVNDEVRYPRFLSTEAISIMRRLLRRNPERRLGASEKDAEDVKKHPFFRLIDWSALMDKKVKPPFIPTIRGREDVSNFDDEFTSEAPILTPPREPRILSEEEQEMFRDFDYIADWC
Method: as §1

PKCγ = molecular target: T4, PKCγ (Homo sapiens, UniProt P05129); experiment: Lance-FRET kinase assay, PKCγ; assay type: biochemical; conditions: Figure 1B
T4 construct: purchased SignalChem Biotech
Method: as §2, with “Reactions were initiated by adding 2.5 μM ATP at 27°C and were terminated after 60 minutes with 10 μL of 2.5× Stop Solution/Detection Mix containing 20 mM EDTA and 4 nM LANCE Ultra Europium anti–phospho-PKC (Ala25Ser) peptide antibody (PerkinElmer, TRF0200, Revvity).” left out, “The Z’ factor for this assay ranged between 0.72 and 0.86.” left out
Kinase assays used 11-point concentration-response curves and results were analyzed by nonlinear regression using Prism 9 (GraphPad Software) to determine IC50 values. […] Scores for pain threshold, conditioned place preference, and self-administration were analyzed by ANOVA using the following factors. […]

CLK1 (CDC Like Kinase 1) = molecular target: T5, CLK1 (CDC Like Kinase 1) (Homo sapiens, UniProt P49759); experiment: scanMax kinome panel, CLK1; assay type: binding; conditions: 200 nM CP612; read-out: scanMax % of control, CLK1
T5 construct: purchased Eurofins-DiscoverX
T5 sequence (P49759 whole entry): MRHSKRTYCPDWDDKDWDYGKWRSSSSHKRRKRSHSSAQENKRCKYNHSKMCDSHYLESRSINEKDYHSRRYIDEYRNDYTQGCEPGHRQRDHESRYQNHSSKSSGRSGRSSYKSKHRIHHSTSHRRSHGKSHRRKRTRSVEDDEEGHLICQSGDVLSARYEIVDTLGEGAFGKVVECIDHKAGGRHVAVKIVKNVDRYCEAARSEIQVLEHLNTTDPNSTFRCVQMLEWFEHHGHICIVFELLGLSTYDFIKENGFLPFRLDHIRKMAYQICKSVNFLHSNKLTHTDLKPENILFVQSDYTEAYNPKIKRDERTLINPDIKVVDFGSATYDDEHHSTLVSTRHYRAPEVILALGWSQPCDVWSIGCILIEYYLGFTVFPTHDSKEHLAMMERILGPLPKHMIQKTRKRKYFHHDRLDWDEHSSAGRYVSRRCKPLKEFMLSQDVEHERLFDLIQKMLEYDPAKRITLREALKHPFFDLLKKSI
Method: as §1

ROCK1, sequence (Q13464 whole entry): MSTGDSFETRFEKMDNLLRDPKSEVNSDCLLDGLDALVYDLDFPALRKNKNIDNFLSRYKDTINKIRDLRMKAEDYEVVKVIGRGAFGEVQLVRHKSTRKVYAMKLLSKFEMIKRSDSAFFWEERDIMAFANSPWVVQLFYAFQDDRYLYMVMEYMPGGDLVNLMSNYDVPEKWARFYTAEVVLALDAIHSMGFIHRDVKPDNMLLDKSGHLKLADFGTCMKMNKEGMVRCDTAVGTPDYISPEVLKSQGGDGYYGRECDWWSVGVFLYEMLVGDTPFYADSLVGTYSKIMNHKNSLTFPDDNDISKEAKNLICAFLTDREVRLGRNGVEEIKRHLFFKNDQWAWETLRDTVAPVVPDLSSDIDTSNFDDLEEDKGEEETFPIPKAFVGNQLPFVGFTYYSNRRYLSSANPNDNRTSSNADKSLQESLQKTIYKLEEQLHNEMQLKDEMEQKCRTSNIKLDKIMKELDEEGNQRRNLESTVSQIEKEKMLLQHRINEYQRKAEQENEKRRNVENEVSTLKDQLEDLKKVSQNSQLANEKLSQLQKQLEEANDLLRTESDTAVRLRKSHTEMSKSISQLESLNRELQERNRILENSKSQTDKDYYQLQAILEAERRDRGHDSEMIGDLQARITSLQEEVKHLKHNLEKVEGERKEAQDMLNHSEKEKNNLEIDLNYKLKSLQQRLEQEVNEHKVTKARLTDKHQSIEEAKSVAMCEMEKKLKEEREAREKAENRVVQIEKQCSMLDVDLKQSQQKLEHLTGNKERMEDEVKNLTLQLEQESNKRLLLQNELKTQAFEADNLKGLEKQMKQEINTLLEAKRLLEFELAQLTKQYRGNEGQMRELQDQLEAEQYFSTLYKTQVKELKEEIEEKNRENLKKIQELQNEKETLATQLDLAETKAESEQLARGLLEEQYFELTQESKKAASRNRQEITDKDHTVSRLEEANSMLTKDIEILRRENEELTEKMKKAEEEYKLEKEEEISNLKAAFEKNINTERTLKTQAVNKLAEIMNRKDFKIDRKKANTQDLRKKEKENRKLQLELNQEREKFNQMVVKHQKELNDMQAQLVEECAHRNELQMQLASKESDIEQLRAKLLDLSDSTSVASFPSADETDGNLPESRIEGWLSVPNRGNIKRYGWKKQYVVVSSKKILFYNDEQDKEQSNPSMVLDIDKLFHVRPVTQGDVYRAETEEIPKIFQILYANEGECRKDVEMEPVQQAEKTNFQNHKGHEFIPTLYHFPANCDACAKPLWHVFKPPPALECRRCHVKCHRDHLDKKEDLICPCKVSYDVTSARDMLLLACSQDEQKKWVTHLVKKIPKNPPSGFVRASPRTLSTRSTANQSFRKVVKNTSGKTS

Q: What does the source list for N[C@H](CNC(=O)C1(c2ccc(Cl)cc2)CCCC1)c1ccc(C(=O)Nc2ccncc2)cc1 [CP612]?
A: scanMax % of control, ROCK1 (ROCK1): < 10 % of control; inhibition at 0.03 µM (PKCε; 30 nM CP612, read-out: Inhibition of novel PKCs (PKCε)): > 50%; Relative potency within the nPKC subfamily (PKCε; Figure 1B): most potent; IC50 (PKCε; Figure 1B PKC isozyme panel, read-out: IC50 PKCε): 2.03 nM; IC50 (PKCε; mean of all runs (count 42 CP612; 38 CIDD-0072424), 2.5 μM ATP, read-out: IC50 (nM) [Enzyme: PKCε], mean): 1.9 ± 0.4 nM; ROCK1/PKCε ratio, mean (PKCε; mean of ratios of all runs): 54.8; remaining binding at 0.2 µM (PKN1 (Protein kinase N1)): < 10%; scanMax % of control, PKN2 (PKN2): < 10 % of control; Inhibition of conventional PKCγ (PKCγ): weakly inhibited; remaining binding at 0.2 µM (CLK1 (CDC Like Kinase 1)): < 10%

Source: paper PMC12016938, “A small molecule PKCε inhibitor reduces hyperalgesia induced by paclitaxel or opioid withdrawal” (JCI Insight, 2025)
